Experimental data taken from patent US20260055083A1, “APOL1 INHIBITORS AND METHODS OF USE” (Maze Therapeutics, Inc., priority 2022, published 2026).
pEC50: −log10 of the molar value.

Columns and labels:
APOL1 G2 [1] = biological target: T1, APOL1 G2 (Homo sapiens, UniProt O14791, DEL388-389); experiment: APOL1 G2 FLIPR calcium influx assay (HEK T-REx/GCaMP6f/APOL1 G2 K6.3 cells); assay type: cell-based; conditions: HEK293 clone expressing GCaMP6f, doxycycline-induced APOL1 G2; prevention of calcium influx; geometric mean of at least 2 assay runs
T1 construct: expressed in transfected cells; host or cells: HEK293/T-REx APOL1 G2 clone #2, doxycycline-inducible
T1 sequence (O14791 with tags, fused parts or gaps DEL388-389): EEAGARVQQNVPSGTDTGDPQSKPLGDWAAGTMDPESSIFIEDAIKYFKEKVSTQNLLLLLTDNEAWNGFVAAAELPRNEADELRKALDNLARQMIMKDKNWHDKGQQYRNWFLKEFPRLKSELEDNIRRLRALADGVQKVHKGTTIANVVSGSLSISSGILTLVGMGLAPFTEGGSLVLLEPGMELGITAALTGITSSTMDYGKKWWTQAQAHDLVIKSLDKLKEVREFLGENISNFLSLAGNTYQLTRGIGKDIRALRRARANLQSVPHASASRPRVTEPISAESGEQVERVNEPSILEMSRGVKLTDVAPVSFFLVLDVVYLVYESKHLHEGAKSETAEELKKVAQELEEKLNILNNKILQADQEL
Method in brief: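 Cells express GCaMP6f stably and APOL1 G2 after a 6 h doxycycline induction. Duplicate 8-point dilutions sit 10 min at room temperature in Ca2+-free Tyrode's (pH 7.4), then Ca2+ is injected to 5 mM final and the FLIPR signal recorded. AC50s are geometric means across ≥2 days.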

APOL1 G2 [2] = biological target: T1, APOL1 G2; experiment: APOL1 G2 HEK293 rescue of cell death caused by overexpression of APOL1 (CellTiter-Glo); assay type: cell-based; conditions: HEK293/T-REx APOL1 G2 clone #2, doxycycline induction, 17 hours, CellTiter-Glo luminescence; reversal of cell death; geometric mean of at least 2 assay runs
Method in brief: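 Viability read by CellTiter-Glo luminescence after 17 h, 37 °C, in HEK293/T-REx cells expressing APOL1 G2 on 6 ng/mL doxycycline, 5,000 cells/well. Compounds tested as duplicate 8-point, 3-fold dilutions, 0.5% DMSO final; four-parameter logistic EC50, usually geometric mean of ≥2 days.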

AC50 (APOL1 G2 [1]) | Compound | pEC50 (APOL1 G2 [2])
767 nM | C[C@@H]1CN(C2CCc3ccc(Cl)cc3C2)C[C@H]1COc1ccc(S(C)(=O)=O)cc1 (stereo partly drawn) [Compound 14, (3S,4S)-1-[7-chloro-1,2,3,4-tetrahydronaphthalen-2-yl]-3-[(4-methanesulfonylphenoxy)methyl]-4-methylpyrrolidine] | 6.26
380 nM | CC(Cc1cc(Cl)cc(C#N)c1)N1C[C@@H](COc2ccc(S(C)(=O)=O)cc2)[C@H](C)C1 (stereo partly drawn) [Compound 17, 3-chloro-5-[2-[(3S,4S)-3-[(4-methanesulfonylphenoxy)methyl]-4-methylpyrrolidin-1-yl]propyl]benzonitrile] | 6.28
776 nM | C[C@@H]1CN(CCc2cccc(C#N)c2)C[C@H]1COc1cnc(S(C)(=O)=O)cn1 [Compound 20, 3-{2-[(3S,4S)-3-{[(5-methanesulfonylpyrazin-2-yl)oxy]methyl}-4-methylpyrrolidin-1-yl]ethyl}benzonitrile] | 5.95
392 nM | Cc1c(C#N)cc(Cl)cc1CCN1C[C@@H](CO)[C@H](COc2ccc(S(C)(=O)=O)cc2)C1 [Compound 23, 5-chloro-3-{2-[(3S,4S)-3-(hydroxymethyl)-4-[(4-methanesulfonylphenoxy)methyl]pyrrolidin-1-yl]ethyl}-2-methylbenzonitrile] | 6.51
310 nM | CS(=O)(=O)c1ccc(OC[C@@H]2CN(CCc3cc(Cl)cc(C#N)c3)C[C@H]2CO)cc1 [Compound 24, 3-chloro-5-{2-[(3S,4S)-3-(hydroxymethyl)-4-[(4-methanesulfonylphenoxy)methyl]pyrrolidin-1-yl]ethyl}benzonitrile] | 6.39
1360 nM | C[C@@H]1C[C@H](COc2ccc(S(=O)(=O)CCCS(C)(=O)=O)cc2)CN1C1CCc2c(C#N)cc(Cl)cc2C1 (stereo partly drawn) [Compound 43, 3-chloro-6-[(2R,4S)-4-{[4-(3-methanesulfonylpropanesulfonyl)phenoxy]methyl}-2-methylpyrrolidin-1-yl]-5,6,7,8-tetrahydronaphthalene-1-carbonitrile] | 6.46
1610 nM | C[C@@H]1C[C@H](COc2ccc(S(=O)(=O)CCS(C)(=O)=O)cc2)CN1C1CCc2c(C#N)cc(Cl)cc2C1 (stereo partly drawn) [Compound 46, 3-chloro-6-[(2R,4S)-4-{[4-(2-methanesulfonylethanesulfonyl)phenoxy]methyl}-2-methylpyrrolidin-1-yl]-5,6,7,8-tetrahydronaphthalene-1-carbonitrile] | 6.38
581 nM | C[C@@H]1C[C@H](COc2ccc(S(=O)(=O)CCO)cc2)CN1C1CCc2ccc(C#N)cc2C1 (stereo partly drawn) [Compound 58, 7-[(2R,4S)-4-{[4-(2-hydroxyethanesulfonyl)phenoxy]methyl}-2-methylpyrrolidin-1-yl]-5,6,7,8-tetrahydronaphthalene-2-carbonitrile] | 7.36
698 nM | C[C@@H]1C[C@H](COc2ccc(S(=O)(=O)CCO)cc2)CN1C1CCc2ccc(Cl)cc2C1 (stereo partly drawn) [Compound 61, 2-(4-{[(3S,5R)-1-[7-chloro-1,2,3,4-tetrahydronaphthalen-2-yl]-5-methylpyrrolidin-3-yl]methoxy}benzenesulfonyl)ethan-1-ol] | 7.20
337 nM | CC(=O)N(C)CCS(=O)(=O)c1ccc(OC[C@H]2C[C@@H](C)N(CCc3cccc(C#N)c3)C2)cc1 [Compound 67, N-[2-(4-{[(3S,5R)-1-[2-(3-cyanophenyl)ethyl]-5-methylpyrrolidin-3-yl]methoxy}benzenesulfonyl)ethyl]-N-methylacetamide] | 7.30
708 nM | C[C@@H]1CN(CCc2cccc(C#N)c2)C[C@H]1COc1ccc(S(C)(=O)=NCCS(C)(=O)=O)cc1 (stereo partly drawn) [Compound 68, 3-{2-[(3S,4S)-3-[(4-{[(2-methanesulfonylethyl)imino](methyl)oxo-λ^6-sulfanyl}phenoxy)methyl]-4-methylpyrrolidin-1-yl]ethyl}benzonitrile] | 6.44

The remaining lines, values behind:

Compound | AC50 (APOL1 G2 [1]) | pEC50 (APOL1 G2 [2])
C[C@@H]1C[C@H](COc2ccc(S(C)(=O)=O)cn2)CN1CCc1cc(Cl)cc(C#N)c1 [Compound 12, 3-chloro-5-{2-[(2R,4S)-4-{[(5-methanesulfonylpyridin-2-yl)oxy]methyl}-2-methylpyrrolidin-1-yl]ethyl}benzonitrile] | 279 nM | 7.00
C[C@@H]1CN(CCc2cc(Cl)cc(C#N)c2)C[C@H]1COc1ccc(S(=O)(=O)C2(C)COC2)cc1 [Compound 13, 3-chloro-5-{2-[(3S,4S)-3-methyl-4-({4-[(3-methyloxetan-3-yl)sulfonyl]phenoxy}methyl)pyrrolidin-1-yl]ethyl}benzonitrile] | 290 nM | 7.38
CS(=O)(=O)c1ccc(OC[C@@H]2CN(CCc3cccc(Cl)c3)C[C@H]2CO)cc1 [Compound 21, [(3S,4S)-1-[2-(3-chlorophenyl)ethyl]-4-[(4-methanesulfonylphenoxy)methyl]pyrrolidin-3-yl]methanol] | 138 nM | 6.55
CS(=O)(=O)c1ccc(OC[C@H]2CN(CCc3cccc(Cl)c3)C[C@@H]2CO)cc1 [Compound 22, [(3R,4R)-1-[2-(3-chlorophenyl)ethyl]-4-[(4-methanesulfonylphenoxy)methyl]pyrrolidin-3-yl]methanol] | 1560 nM | < 4.73
CS(=O)(=O)c1ccc(OC[C@@H]2CN(CCc3cccc(C#N)c3)C[C@H]2CO)cc1 [Compound 25, 3-{2-[(3S,4S)-3-(hydroxymethyl)-4-[(4-methanesulfonylphenoxy)methyl]pyrrolidin-1-yl]ethyl}benzonitrile] | 343 nM | 6.00
C[C@@H]1C[C@H](COc2ccc(S(C)(=O)=O)nn2)CN1CCc1cccc(C#N)c1 [Compound 26, 3-{2-[(2R,4S)-4-{[(6-methanesulfonylpyridazin-3-yl)oxy]methyl}-2-methylpyrrolidin-1-yl]ethyl}benzonitrile] | 210 nM | 6.56
C[C@@H]1C[C@H](COc2ccc(S(C)(=O)=O)nc2)CN1CCc1cc(C#N)cc(C#N)c1 [Compound 39, 5-{2-[(2R,4S)-4-{[(6-methanesulfonylpyridin-3-yl)oxy]methyl}-2-methylpyrrolidin-1-yl]ethyl}benzene-1,3-dicarbonitrile] | 554 nM | 6.92
C[C@@H]1C[C@H](COc2ccc(S(=O)(=O)CCCS(C)(=O)=O)cc2)CN1C1CCc2c(C#N)cccc2C1 (stereo partly drawn) [Compound 40, 6-[(2R,4S)-4-{[4-(3-methanesulfonylpropanesulfonyl)phenoxy]methyl}-2-methylpyrrolidin-1-yl]-5,6,7,8-tetrahydronaphthalene-1-carbonitrile] | 534 nM | 7.13
C[C@@H]1C[C@H](COc2ccc(S(=O)(=O)CCS(C)(=O)=O)cc2)CN1C1CCc2ccc(Cl)cc2C1 (stereo partly drawn) [Compound 49, (2R,4S)-1-[7-chloro-1,2,3,4-tetrahydronaphthalen-2-yl]-4-{[4-(2-methanesulfonylethanesulfonyl)phenoxy]methyl}-2-methylpyrrolidine] | 558 nM | 6.71
C[C@@H]1C[C@H](COc2ccc(S(=O)(=O)CCCS(C)(=O)=O)cc2)CN1C1CCc2ccc(Cl)cc2C1 (stereo partly drawn) [Compound 52, (2R,4S)-1-[7-chloro-1,2,3,4-tetrahydronaphthalen-2-yl]-4-{[4-(3-methanesulfonylpropanesulfonyl)phenoxy]methyl}-2-methylpyrrolidine] | 1020 nM | 7.06
C[C@@H]1C[C@H](COc2ccc(S(=O)(=O)CCO)cc2)CN1C1CCc2c(C#N)cc(Cl)cc2C1 (stereo partly drawn) [Compound 55, 3-chloro-6-[(2R,4S)-4-{[4-(2-hydroxyethanesulfonyl)phenoxy]methyl}-2-methylpyrrolidin-1-yl]-5,6,7,8-tetrahydronaphthalene-1-carbonitrile] | 876 nM | 6.62
C[C@@H]1C[C@H](COc2ccc(S(C)(=O)=O)nc2)CN1CCc1cccc(C#N)c1 [Compound 64, 3-{2-[(2R,4S)-4-{[(6-methanesulfonylpyridin-3-yl)oxy]methyl}-2-methylpyrrolidin-1-yl]ethyl}benzonitrile] | 287 nM | 7.29
C[C@@H]1C[C@H](COc2ccc(S(C)(=O)=O)nc2)CN1CCc1cc(Cl)cc(C#N)c1 [Compound 65, 3-chloro-5-{2-[(2R,4S)-4-{[(6-methanesulfonylpyridin-3-yl)oxy]methyl}-2-methylpyrrolidin-1-yl]ethyl}benzonitrile] | 346 nM | 7.30
CC(=O)N(C)CCS(=O)(=O)c1ccc(OC[C@H]2C[C@@H](C)N(CCc3cc(Cl)cc(C#N)c3)C2)cc1 [Compound 66, N-[2-(4-{[(3S,5R)-1-[2-(3-chloro-5-cyanophenyl)ethyl]-5-methylpyrrolidin-3-yl]methoxy}benzenesulfonyl)ethyl]-N-methylacetamide] | 621 nM | 7.11
